Broadly, the IC50 is the concentration that gives 50% inhibition. A high value points to weaker potency in that assay.

The text below walks through data of paper PMC11054303, “Design and Synthesis of Novel N-Benzylidene Derivatives of 3-Amino-4-imino-3,5-dihydro-4H-chromeno[2,3-d]pyrimidine under Microwave, In Silico ADME Predictions, In Vitro Antitumoral Activities and In Vivo Toxicity” (Pharmaceuticals, 2024).

The nature of data set [1]: Antiproliferative assay, Caco2. The format is cell-based, human. To be noted: human, Caco-2; SI = IC50 fibroblasts/IC50 on Caco2; read-out: Selectivity Index (SI) Caco2. As for the experimental part:
(§1) The potential antiproliferative activity of these novel 3-(N-phenylmethyliden)amino-4-imino-3,5-dihydro-4H-chromeno[2,3-d]pyrimidine 10(a-i) and 10-(N-phenylmethyliden)amino-11-imino-11H-naphto[1′,2′:5,6]pyrano[2,3-d]pyrimidine 10(j-l) was evaluated in a panel of eight tumoral cell lines and in diploid skin fibroblasts used as normal cell lines for control. For these antitumor assays, chosen cell lines represent diverse types of human cancer, which are, respectively, human hepatocellular carcinoma (Huh7 D12), human colon adenocarcinoma (Caco2), human breast adenocarcinoma (MDA-MB231), MDA-MB468 for human breast carcinoma which correspond to the Triple Negative Breast Cancer (TNBC), human colon carcinoma (HCT116), PC3 as cell line initiated from bone metastasis of grade IV prostatic adenocarcinoma from a person, MCF7 as breast cancer line isolated from a person and PANC1, as human pancreatic cancer cell line. The potential antiproliferative activity was preliminarily evaluated in vitro at a 25 μM single dose.
(§2) The IC50 was calculated from the full dose-response curve and used as a parameter for the antiproliferative activity of the new compounds.
(§3) Skin diploid fibroblastic cells were provided by BIOPREDIC International Company (Rennes, France). Huh-7D12 (Ref ECACC: 01042712), Caco2 (Ref ECACC: 86010202), MDA-MB-231 (Ref ECACC: 92020424), MDA-MB-468, HCT-116 (Ref ECACC: 91091005), PC3 (Ref ECACC: 90112714), and MCF7 cell lines were obtained from the ECACC collection. PANC1 cell lines, a generous gift of LBAI Inserm 1227 (Brest, France). Cells were grown according to ECACC recommendations in DMEM for Huh-D12, MDA-MB-231, MDA-MB-468 and fibroblast, in EMEM for Caco2, in McCoy’s for HCT-116 and RPMI for PC3 at 37 °C and 5% CO2. All culture media with 10% of FBS, 1% of penicillin-streptomycin and 2 mM glutamine.
(§4) Chemicals were solubilized in DMSO at a concentration of 10 mM (stock solution) and diluted in a culture medium to the desired final concentrations. […] The toxicity test of the chemicals on these cells was as follows: 2 × 10^3 cells for HCT-116 cells or 4 × 10^3 for the other cells were seeded in 96-multi-well plates in triplicate and left for 24 h for attachment, spreading and growing. Then, cells were exposed for 48 h to increasing concentrations of chemicals, ranging from 0.1 μM to 25 μM, in a final volume of 120 μL of culture medium. After 48 h of treatment, cells were washed in PBS and fixed in a cooled 90% ethanol/5% acetic acid solution for 20 min. The nuclei were stained with Hoechst 3342 (B2261 Merck Sigma-Aldrich) and counted. Image acquisition and analysis were performed using automated imaging analysis with a Cellomics Arrayscan VTI/HCS Reader (Thermo/Scientific, Waltham, MA, USA). The survival percentages were calculated as the percentage of cell number after chemical treatment over cell number after DMSO treatment. The IC50 was graphically determined.

The test system of data set [2] is Caco2. Nature of the data set: Antiproliferative assay, Caco2. The data set is classed as cell-based, human. The note with it: Homo sapiens, Caco-2; 48 h incubation; average of three assays, standard error ± 0.5 μM. Here is the method: as §1, §2, §3, §4
The subject of data set [3] is MDA MB231. Nature of the data set: Antiproliferative assay, MDA MB231. The format is cell-based, human. Here is the method: as §1, §2, §3, §4
Data set [4] relates to MDA MB468. Nature of the data set: Antiproliferative assay, MDA MB468. The data set is classed as cell-based, human. As for the experimental part: as §1, §2, §3, §4
For data set [5], the system named is HCT 116. Nature of the data set: Antiproliferative assay, HCT 116. The format is cell-based, human. Here is the method:
as §1, §2, §3, §4

The subject of data set [6] is PC3. Nature of the data set: Antiproliferative assay, PC3. The format is cell-based, human. Here is the method:
as §1, §2, §3, §4

Data set [7] deals with Fibroblasts. Nature of the data set: Antiproliferative assay, diploid skin fibroblasts (normal cells). The format is cell-based. To be noted: Fibroblast; 48 h incubation; average of three assays, standard error ± 0.5 μM. As for the experimental part:
as §1, §2, §3, §4

Data set [8] relates to Store-Operated Ca^+2 Entry (SOCE). Nature of the data set: SOCE and Ca2+ release assay in B cell line (PLP cell line). The data set is classed as cell-based. The note with it: same protocol. As for the experimental part: Thapsigargin (TG), an inhibitor of endoplasmic reticulum Ca^+2-ATPase, is used to deplete intracellular calcium stores in a Ca^+2-free solution and therefore activate SOCE. […] In the context of a preliminary exploration of the functional effects of our molecules of interest and in the absence of a significant inhibition at a low concentration of compound 10h on the reference cell line we used (HEK293) no further exploration of the modulatory effect of this compound on cancer cell lines was initiated.

Entries after “also recorded” stand apart in the source; their conditions may differ.

`COc1cccc2c1Oc1ncn(/N=C/c3ccccc3O)c(=N)c1C2` [10h, (3E) 3-N-(2-Hydroxyphenylmethylidene)amino-4-imino-9-methoxy-3,5-dihydro-4H-chromeno[2,3-d]pyrimidine]: in data set [1], the selectivity ratio at 48 h is greater than 83.3. Also, the IC50 was 300 nM in data set [2]; 300 nM in data set [3] (Homo sapiens, MDA-MB-231, 48 h incubation, average of three assays, standard error ± 0.5 μM); 240 nM in data set [4] (Homo sapiens, MDA-MB-468, 48 h incubation, average of three assays, standard error ± 0.5 μM); 240 nM in data set [5] (Homo sapiens, HCT-116, 48 h incubation, average of three assays, standard error ± 0.5 μM); 240 nM in data set [6] (Homo sapiens, PC-3, 48 h incubation, average of three assays, standard error ± 0.5 μM); greater than 25000 nM in data set [7]. The “Selectivity Index (SI) MDA MB231” value in data set [3] (SI = IC50 fibroblasts/IC50 on MDA MB231) was greater than 83.3. For the same molecule, the “Selectivity Index (SI) MDA MB468” value in data set [4] (SI = IC50 fibroblasts/IC50 on MDA MB468) is on record as greater than 104.2. Further, the “Selectivity Index (SI) HCT 116” value in data set [5] (SI = IC50 fibroblasts/IC50 on HCT 116) is greater than 104.2. The “Selectivity Index (SI) PC3” value in data set [6] (SI = IC50 fibroblasts/IC50 on PC3) is given as greater than 104.2. In addition, in data set [8], the “inhibitory effects on SOCE and Ca2+ release” value is “without detecting any inhibitory effects on SOCE and Ca^2+ release; also recorded: no inhibitory effects on SOCE and Ca^+2 release”.
